From article PMC9618103, “Exploratory toxicology studies of 2,3-substituted imidazo[1,2-a]pyridines with antiparasitic and anti-inflammatory properties” (Toxicology Research, 2022)

Assays:
[1] = test system: Wistar rats; experiment: Hepatic and renal reactive oxygen species (DCF formation); assay type: in vivo; details: for hepatic ROS, change in words / renal ROS, change in words: compared to the control group (CCl4 also versus PO); for Renal ROS: kidney; for Renal ROS / Hepatic ROS: rats, p.o., 14 days at 10% of LD50 (CCl4, APAP: once daily, 3 days), mean ± SEM, n = 6; for Hepatic ROS: liver
Experimental: (§1) For toxicity tests, acclimatized rats were randomly allocated to 12 groups (n = 12 for the control and n = 6 for the rest groups). […] Meanwhile, the aforementioned vehicles (dose volume 2 mL/kg b.w.) were administered to 3 groups. […] Upon completion of the 14-day treatments and before sample collection, the bladders of animals were emptied by gentle pressure on the lower part of the abdomen to induce urination. The animals were then housed in individual metabolic cages to collect urine for a period of 6 h and then the volume was recorded. Afterward, blood samples were obtained and the serum was separated by centrifugation at 1,620 × g for 10 min at room temperature.
Reactive oxygen species (ROS) were measured by formation of 2′,7′-dichlorofluorescein (DCF). An aliquot of 10 μL (kidney) or 5 μL (liver) of the homogenates was added to 1,940 or 1,945 μL of TRIS:HEPES (18:1) and was incubated in the presence of 50 μL of 2′,7′-dichlorofluorescein diacetate for 1 h at 37 °C. In order to quench the reaction, the mixture was chilled using an ice bath. The fluorescence was measured using a Shimadzu fluorometer (Japan; λex = 488 nm; λem = 525 nm). The results were expressed as nM DCF formed per mg protein/h.[33]
(§2) The protein concentration in homogenates was measured by the Bradford method.[29]

[2] = test system: Wistar rats; experiment: Subacute toxicity: serum alanine aminotransferase and alkaline phosphatase activity; assay type: in vivo; details: for Alanine Aminotransferase / Alkaline Phosphatase: serum, rats, p.o., 14 days at 10% of LD50 (CCl4, APAP: once daily, 3 days), mean ± SEM, n = 6
Experimental: as §1
The activities of serum alanine aminotransferase (ALT) and alkaline phosphatase (ALP) were measured with standard kits (RANDOX, Laboratories Ltd, UK).

[3] = test system: Wistar rats; experiment: Hepatic and renal lipid peroxidation (lipid-soluble fluorescence); assay type: in vivo; details: for hepatic LPO, change in words / renal LPO, change in words: compared to the control group (CCl4 also versus PO); for Renal Lipoperoxidation: kidney; for Renal Lipoperoxidation / Hepatic Lipoperoxidation: rats, p.o., 14 days at 10% of LD50 (CCl4, APAP: once daily, 3 days), mean ± SEM, n = 6; for Hepatic Lipoperoxidation: liver
Experimental: as §1
Lipid peroxidation (LPO) was evaluated by the formation of lipid-soluble fluorescence, as previously described. Briefly, kidney and liver tissues were homogenized in 3 and 5 mL of phosphate buffer (0.2 M, pH = 7.4), respectively. A volume of 1 mL (kidney) or 0.8 mL (liver) of the homogenates was added to 7 mL of chloroform-methanol (2:1, v/v), and after 15 s of vortex mixing, the resulting mixture was cooled using an ice bath for 30 min to allow for phase separation. The fluorescence of the organic phase was measured using a Shimadzu fluorometer (Japan; λex = 370 nm; λem = 430 nm), whose sensitivity was adjusted to 140 fluorescence units by using 1 μg/mL of quinine sulfate in 50 mM H2SO4. The results were expressed as relative fluorescence units per milligram of protein.[33]
as §2

[4] = test system: renal secretory pathway of organic anions; experiment: Active tubular secretion of organic acids (PAH uptake in kidney cortex slices); assay type: in vivo, rats; details: kidney cortex slices, PAH 1 mM, 1 h, 25 °C; rats, p.o., 14 days at 10% of LD50 (CCl4, APAP: once daily, 3 days); mean ± SEM, n = 6
Experimental: as §1
p-Aminohippuric acid (PAH) was used as an indicator of the renal secretory pathway of organic anions. Kidneys were extracted and immediately submerged in Ringer solution (pH = 7.4 and mOsm = 290 ± 10 mOsm/kg) under constant bubbling with O2/CO2 (95/5%). The kidneys were decapsulated and slices of the kidney cortex were obtained, which were then incubated in Ringer solution containing PAH (1 mM) for 1 h at 25 °C under constant bubbling with O2/CO2 (95/5%). The levels of PAH were quantified with the Bratton-Marshall method and results were expressed as the PAH tissue/medium ratio (PAH t/m ratio).[31]^,[32]

[5] = test system: Wistar rats; experiment: Subacute toxicity: glomerular filtration rate (creatinine clearance) and serum creatinine; assay type: in vivo; details: rats, p.o., 14 days at 10% of LD50 (CCl4, APAP: once daily, 3 days); mean ± SEM, n = 6
Experimental: (§3) For toxicity tests, acclimatized rats were randomly allocated to 12 groups (n = 12 for the control and n = 6 for the rest groups). […] Meanwhile, the aforementioned vehicles (dose volume 2 mL/kg b.w.) were administered to 3 groups. […] The animals were then housed in individual metabolic cages to collect urine for a period of 6 h and then the volume was recorded. Afterward, blood samples were obtained and the serum was separated by centrifugation at 1,620 × g for 10 min at room temperature.
(§4) Serum and urinary creatinine were determined by the Jaffe method. With this value, evaluation was made of the fractional excretion of sodium (FES), fractional excretion of potassium (FEP), and fractional excretion of glucose.[30]^,[31] The GFR was calculated from clearance of endogenous creatinine using the conventional equation:where GFR (CCr) is the creatinine clearance rate (mL/min); UCr and SCr are the creatinine concentrations (mg/dL) in urine and serum, respectively; and φ is the urinary flow rate (UFR) (mL/min). To avoid the error from the tubular secretion of creatinine found in males, only female animals were used.

[6] = test system: Wistar rats; experiment: Subacute toxicity: water and electrolyte balance (osmolality, sodium, potassium, urinary flow); assay type: in vivo
Experimental: as §3
Osmolality of serum and urine were assessed (in triplicate) by using a vapor pressure osmometer (Wescor 5500, Logan, United States). U/S ratio as well as osmolar (COsm) and free water clearances were calculated via conventional equations:where UOsm and SOsm are the osmolality values (mOsm/Kg) in urine and serum, respectively, and φ is the UFR (mL/min).
(§5) The levels of sodium and potassium were measured in urine and serum using a flame photometer (Corning 400, Medfield, United States). Calculation was made of the clearance, fractional excretion, and filtered load of sodium (FLS), filtered load of potassium (FLP), and filtered load of glucose (FLG) using the conventional equations:where CX is the clearance rate of X (mL/min), CCr is the creatinine clearance rate (mL/min), UX and SX are the […] concentrations of X, respectively, φ is the UFR (mL/min), FEX is the fractional excretion (%) of X, and FLX is the filtered load of X in μEq/min (Na^+ or K^+) or mg/min (glucose).

[7] = test system: Wistar rats; experiment: Subacute toxicity: serum and urine glucose, urinary protein excretion; assay type: in vivo; details: rats, p.o., 14 days at 10% of LD50 (CCl4, APAP: once daily, 3 days); mean ± SEM, n = 6
Experimental: as §3
Serum and urine glucose concentration were calculated using GOD-PAP kits (RANDOX, Laboratories Ltd, UK). Urinary protein was quantified using the Bradford method.[29]
as §4, §5

[8] = compared to the control (CCl4 also versus PO)
[9] = rats, p.o., 14 days at 10% of LD50 (CCl4, APAP: once daily, 3 days), mean ± SEM, n = 6

| Structure (SMILES) | hepatic ROS, change in words [1] | renal ROS, change in words [1] | Renal ROS [1] | Hepatic ROS [1] | Alanine Aminotransferase [2] | Alkaline Phosphatase [2] | hepatic LPO, change in words [3] | renal LPO, change in words [3] | Renal Lipoperoxidation [3] | Hepatic Lipoperoxidation [3] | Filtered Load of Potassium [6, 9] | Filtered Load of Sodium [6, 9] | Fractional Excretion of Potassium [6, 9] | Fractional Excretion of Sodium [6, 9] | Serum Osmolality [6, 9] | Serum Potassium [6, 9] | Serum Sodium [6, 9] | Urinary Flow Rate [6, 9] | Urinary Potassium Excretion [6, 9] | Urinary Sodium Excretion [6, 9] | other results |
| --- | --- | --- | --- | --- | --- | --- | --- | --- | --- | --- | --- | --- | --- | --- | --- | --- | --- | --- | --- | --- | --- |
| ClC(Cl)(Cl)Cl [CCl4, carbon tetrachloride, reference compound] | increased | increased | 333.27 ± 74.29 nM de DCF/mg protein/h | 1434.82 ± 121.35 nM de DCF/mg protein/h | 127.80 ± 4.08 U/L | 328.19 ± 61.36 U/L | increased | increased | 0.61 ± 0.07 URF/mg protein | 1.06 ± 0.11 URF/mg protein | 17.22 ± 5.29 µEq/min | 592.11 ± 199.71 µEq/min | 6.86 ± 2.06% | 0.21 ± 0.06% | 305.77 ± 3.41 mOsm/kg | 4.27 ± 0.25 mEq/L | 139.08 ± 1.63 mEq/L | 6.59 ± 1.39 µL/min | 0.73 ± 0.10 µEq/min | 0.72 ± 0.13 µEq/min | serum ALP, change in words [2, 8]: increased; serum ALT, change in words [2, 8]: increased; PAH t/m ratio [4]: 2.08 ± 0.11; Glomerular Filtration Rate [5]: 4.30 ± 1.47 mL/min; Serum Creatinine [5]: 0.45 ± 0.13 mg/dL; U/S Osm ratio [6, 9]: 3.27 ± 0.37; Filtered Load of Glucose [7]: 4.64 ± 1.71 mg/min; Fractional Excretion of Glucose [7]: 0.02 ± 0.01%; Serum Glucose [7]: 103.17 ± 4.35 mg/dL; Urinary Glucose Excretion [7]: 265.11 ± 89.54 ng/min; Urinary Protein Excretion [7]: 12.15 ± 4.49 µg/min |
| CC(=O)Nc1ccc(O)cc1 [APAP, acetaminophen, reference compound] | increased | increased | 421.62 ± 56.57 nM de DCF/mg protein/h | 1740.28 ± 231.55 nM de DCF/mg protein/h | 41.47 ± 4.80 U/L | 151.97 ± 11.19 U/L | increased | increased | 0.46 ± 0.06 URF/mg protein | 1.06 ± 0.06 URF/mg protein | 3.99 ± 0.80 µEq/min | 147.38 ± 31.27 µEq/min | 12.50 ± 3.12% | 0.27 ± 0.09% | 295.68 ± 1.57 mOsm/kg | 3.78 ± 0.22 mEq/L | 138.58 ± 2.37 mEq/L | 6.19 ± 1.15 µL/min | 0.47 ± 0.14 µEq/min | 0.46 ± 0.21 µEq/min | serum potassium, change in words ([6]; compared to the control group, significant by PLS VIP and ANOVA): decreased; Filtered Load of Glucose [7]: 1.35 ± 0.27 mg/min; Fractional Excretion of Glucose [7]: 0.01 ± 1.9E-3%; Urinary Glucose Excretion [7]: 87.10 ± 19.92 ng/min; Urinary Protein Excretion [7]: 0.94 ± 0.24 µg/min |
